Test results as given in US20120094989A1, “5-HT RECEPTOR MODULATING COMPOUNDS” (priority 2009, published 2012).
Values joined by “and” are separate entries in the source; they are usually repeats but may differ in a detail not shown here. Equal values may be shown once. Read-outs that look alike come from different tables or passages of the source.

Legend:
[1] = molecular target: T1, human 5-HT4(b) receptor (Homo sapiens, UniProt Q13639); assay: Adenylyl cyclase assay (antagonist pKb, agonist/antagonist properties); format: biochemical; settings: membranes of HEK293 cells stably expressing human 5-HT4(b) receptor; for Kb: hyphen-separated values taken as single determinations
T1 sequence (Q13639 whole entry): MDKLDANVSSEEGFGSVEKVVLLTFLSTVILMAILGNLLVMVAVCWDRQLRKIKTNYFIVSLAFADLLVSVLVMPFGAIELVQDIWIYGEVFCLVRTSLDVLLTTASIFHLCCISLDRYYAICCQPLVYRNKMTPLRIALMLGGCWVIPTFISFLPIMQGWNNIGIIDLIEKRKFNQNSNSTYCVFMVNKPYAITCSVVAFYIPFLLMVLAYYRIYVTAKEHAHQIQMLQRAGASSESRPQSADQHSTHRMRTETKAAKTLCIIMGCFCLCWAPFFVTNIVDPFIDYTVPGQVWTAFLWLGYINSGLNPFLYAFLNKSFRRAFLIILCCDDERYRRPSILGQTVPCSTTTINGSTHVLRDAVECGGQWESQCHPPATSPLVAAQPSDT
Description: (§1) The development of HEK293 cell lines stably expressing human 5-HT4(b) receptors was described and published previously (Bach et al. 2001). Briefly, HEK293 cells (ATCC) were grown in Dulbecco's modified Eagle's medium with 10% foetal calf serum and penicillin (100 U/ml) and streptomycin (100 μg/ml). Cells were transfected with plasmid DNA (pcDNA3.1(−) containing human 5-HT4(b) receptor cDNA) using SuperFect Transfection Reagent (QIAGEN) according to the manufacturers protocol. Serial dilutions of transfected cells were plated in 96 well plates containing G418 (geneticin; Amersham) at 0.4 mg/ml, and isolated single colonies of cells transformed to the neomycin-resistant phenotype were expanded and tested for expression of serotonin receptors by measuring serotonin-stimulated adenylyl cyclase activity (Themmen et al. 1993). Transformed cells were always grown in the presence of G418 (0.4 mg/ml). For binding and adenylyl cyclase analysis, stable cell lines were grown and maintained in UltraCULTURE™ general purpose serum-free medium (BioWhittaker, Walkersville, Md., USA), supplemented with L-glutamine (2 mM), penicillin (100 U/ml) and streptomycin (100 μg/ml).
(§2) Membranes were prepared from stably transfected HEK293 cells cultured on 150-mm cell culture dishes and grown to 80% confluence in serum-free medium (UltraCULTURE™, BioWhittaker) with penicillin (10 U/ml) and 2 mM L-Glutamine (BioWhittaker). Cells were washed twice with 10 ml ice-cold HBSS, scraped with a rubber policeman in 10 ml ice-cold HBSS and collected by centrifugation at 800 g for 5 min at 4° C. The cell pellet was resuspended in 1 ml/dish ice-cold STE buffer (27% (w/v) sucrose, 50 mM Tris-HCl, pH 7.5 at 20° C., 5 mM EDTA) and homogenized with an Ultra-Turrax (IKA) homogenizer, using five 10 s bursts with 30 s cooling in ice-water between bursts. To remove nuclei, the homogenate was centrifuged at 300 g for 5 min at 4° C. and the supernatant was further centrifuged at 17000 g for 20 min at 4° C. and the supernatant removed. The crude membrane pellet was resuspended with ten strokes of tight fitting pestle B in a Dounce glass-glass homogenizer in 1 ml/dish ice-cold TE (50 mM Tris-HCl, pH 7.5 at RT, 5 mM EDTA). This procedure was repeated twice and the resuspended membranes were finally aliquotted and flash frozen in liquid nitrogen and stored at −70° C. until use.
Adenylyl cyclase activity was measured in membranes of HEK293 cells stably expressing the human 5-HT4(b) receptor (refs.) by determining conversion of [α-^32P]ATP to [^32P]cAMP in membranes prepared in STE by homogenization of cells grown and washed as described above in a Dounce glass-glass homogenizer by 10 strokes with the tight-fitting pestle. Membranes were kept on ice prior to assay. Adenylyl cyclase activities were measured in 10-μl aliquots in a final volume of 50 μl in the presence of 0.1 mM [α-^32P]ATP (1-2×10^6 cpm/assay), 4 mM MgCl2, 20 μM GTP, 1 mM EDTA, 1 mM [^3H]cAMP (ca. 10,000 cpm/assay), […] 3-isobutyl-1-methyl xanthine (IBMX; Sigma), a nucleoside triphosphate regenerating system consisting of 20 mM creatine phosphate (Sigma), 0.2 mg/ml creatine phosphokinase (Sigma) and 40 U/ml myokinase (Sigma) and additives described in the text and figures. When forskolin (Calbiochem, La Jolla, Calif., USA) was used the concentration was 100 μM. Incubations were for 20 min at 32° C. Cyclic AMP formed was quantified by the double column chromatography system of Salomon et al. (1974) as modified by Bockaert et al. (1976).
(§3) Binding and adenylyl cyclase data were analyzed by non-linear regression using Microsoft Excel with the Solver add-in, using the below equations.
Activation of adenylyl cyclase—The data were fit to the equation
where a is basal adenylyl cyclase activity, b is maximal adenylyl cyclase activity stimulated by the agonist, c is EC50, and x is the concentration of agonist.
(§4) IC50 values from competitive binding assays were converted to Kb values by the method of Cheng and Prusoff (1973).

[2] = molecular target: T1, human 5-HT4(b) receptor; assay: Radioligand binding assay with [3H]GR113808
Description: as §1, §2
Binding assays were performed on membranes of HEK293 cells stably expressing the human 5-HT4(b) receptor (refs.) in 96-well, round-bottom microtiter plates with total reaction volumes of 50-200 μl, containing the indicated concentration of [^3H]GR113808 with or without competing unlabelled ligand in a binding buffer containing 50 mM Tris-HCl (pH 7.5 at RT), 1 mM EDTA, 5 mM EGTA, 2 mM MgCl2, 1 mM ascorbate, 0.1% BSA and 100 μM GTP. The plates were incubated at 23 EC for 60 min and harvested onto UniFilter™-96 GF/C™ (Packard Instrument Co., Meriden, Conn., USA), presoaked in 0.3% polyethyleneimine (Sigma), using a Packard FilterMate Universal Harvester with 96-well format, and washed 4-6 times with approximately 0.25 ml/well of ice-cold buffer, containing 50 mM Tris-HCl (pH 7.0 at RT) and 2 mM MgCl2. The filters were dried and counted at approximately 40% efficiency in a Top-Count liquid scintillation counter (Packard), using 20 μl per filter well of Micro-Scint liquid scintillation cocktail (Packard).
as §3
Competitive binding assays—The data were fit to the equation
where a is non-specific binding, b is total binding in the absence of competitor, c is IC50, and x is the concentration of competitor. Where relevant, relative binding data were obtained by recalculating the data using a=0 and b=100.
as §4

[3] = molecular target: T2, hERG ion channel (Homo sapiens, UniProt Q12809); assay: hERG tail current, patch-clamp in HEK-293 cells stably transfected with hERG; format: cell-based
T2 construct: expressed in transfected cells; host or cells: HEK-293, stably transfected
T2 sequence (Q12809 whole entry): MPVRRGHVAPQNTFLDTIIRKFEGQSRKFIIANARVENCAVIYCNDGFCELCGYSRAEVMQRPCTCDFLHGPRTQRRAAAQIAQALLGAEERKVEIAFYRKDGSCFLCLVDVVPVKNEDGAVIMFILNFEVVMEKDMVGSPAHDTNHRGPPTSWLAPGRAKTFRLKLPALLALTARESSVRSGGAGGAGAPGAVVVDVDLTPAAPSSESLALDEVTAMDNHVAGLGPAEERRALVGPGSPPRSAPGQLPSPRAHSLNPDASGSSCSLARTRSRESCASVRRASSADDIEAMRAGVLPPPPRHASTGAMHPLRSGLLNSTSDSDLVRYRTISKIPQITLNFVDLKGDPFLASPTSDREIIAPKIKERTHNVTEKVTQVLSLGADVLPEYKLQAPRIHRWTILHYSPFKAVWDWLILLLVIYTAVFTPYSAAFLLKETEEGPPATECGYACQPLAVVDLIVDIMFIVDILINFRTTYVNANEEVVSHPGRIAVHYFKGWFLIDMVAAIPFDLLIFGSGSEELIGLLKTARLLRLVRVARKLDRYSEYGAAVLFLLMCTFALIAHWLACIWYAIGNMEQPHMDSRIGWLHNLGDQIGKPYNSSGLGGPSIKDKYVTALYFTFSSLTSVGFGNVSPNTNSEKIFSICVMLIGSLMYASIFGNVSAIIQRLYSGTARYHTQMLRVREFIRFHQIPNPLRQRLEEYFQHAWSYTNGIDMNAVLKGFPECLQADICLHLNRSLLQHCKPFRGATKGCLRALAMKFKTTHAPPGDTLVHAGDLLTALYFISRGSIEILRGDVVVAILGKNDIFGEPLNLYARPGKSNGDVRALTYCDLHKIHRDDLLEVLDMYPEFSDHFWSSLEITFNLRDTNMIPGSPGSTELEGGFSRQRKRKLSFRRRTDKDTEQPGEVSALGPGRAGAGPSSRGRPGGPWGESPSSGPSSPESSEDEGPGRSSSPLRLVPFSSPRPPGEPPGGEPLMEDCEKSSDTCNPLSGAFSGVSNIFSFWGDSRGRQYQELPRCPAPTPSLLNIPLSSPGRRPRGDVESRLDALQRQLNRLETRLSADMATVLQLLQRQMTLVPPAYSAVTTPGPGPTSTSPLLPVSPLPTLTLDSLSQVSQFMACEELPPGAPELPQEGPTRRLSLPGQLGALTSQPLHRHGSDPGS
Description: The purpose of this study was to assess the effects of the above compounds on hERG (human ether-a-go-go related gene) tail current by examining the acute effect of the test compounds on the hERG ion channel in an appropriate in vitro test system. The human embryonic kidney cell (HEK-293), which has been stably transfected with hERG ion channel cDNA, is a preparation that is considered suitable for this purpose.
Four concentrations of each test compound were tested in a screening assay to determine the liability to block hERG channels. Using the patch-clamp technique, peak hERG tail current amplitude was measured prior to and following exposure to the compounds at the following nominal concentrations:
for approximately 7 to 32 minutes (n=3 cells for each concentration). In addition, peak hERG tail current amplitude was measured in a separate group of 3 cells, prior to and following exposure to vehicle (0.1% DMSO) for time-matched vehicle data correction. Terfenadine (at the submaximally effective concentration of 50 nM, n=3), a known inhibitor of the IKr current, was used as a positive control compound.
The test compound data were corrected for the mean effect of vehicle and rundown and the concentration-response data were plotted and fitted with a sigmoidal function, from which the IC50 values for each compound were calculated.

[4] = peak hERG tail current, HEK-293, corrected for vehicle and rundown, sigmoidal fit, read-out: hERG IC50
[5] = read-out: Antagonist pKb value (converted)
[6] = [3H]GR113808 competition, membranes of HEK293 cells stably expressing human 5-HT4(b) receptor, hyphen-separated values taken as single determinations, read-out: Binding affinity (pKd value) (converted)

Compound: O=C(OCC1CCN(Cc2ccc(-c3ccccc3-c3nn[nH]n3)cc2)CC1)c1c2n(c3ccccc13)CCCO2 [Compound 4]
- Kb ([1]; Antagonist pKb value): 0.00447 nM

Compound: Cn1cc(C(=O)OCC2CCN(CCNS(C)(=O)=O)CC2)c2ccccc21 [GR113808, 1-methyl-1H-indole-3-carboxylic acid, [1-[2-[(methylsulfonyl)amino]ethyl]-4-piperidinyl]methyl ester, reference compound]
- Kb ([1]; Antagonist pKb value): 0.0891 nM
- Agonist/Antagonist properties [1]: Antagonist
- Kd [2]: 0.112 nM and 0.0389 nM

Compound: O=C(O)c1ccccc1-c1ccc(CN2CCC(COC(=O)c3c4n(c5ccccc35)CCCO4)CC2)cc1 [Compound 8]
- Kb ([1]; Antagonist pKb value): 0.0631 nM and 0.331 nM
- IC50 [3, 4]: 47500 nM
- Kd [2]: 0.0363 nM and 0.0776 nM

Compound: O=C(OCC1CCN(C2CCC(C(=O)O)C2)CC1)c1c2n(c3ccccc13)CCCO2 (stereo not shown) [Compound 24]
- Agonist/Antagonist properties [1]: Antagonist
- Kb [1, 5]: 2.51 nM
- IC50 [3, 4]: 209000 nM
- Kd [2]: 1.15 nM

Compound: COc1cc(N)c(Cl)cc1C(=O)NCC1CCN(Cc2ccc(-c3ccccc3-c3nn[nH]n3)cc2)CC1 [Compound 20]
- Kd [2, 6]: 18.6 nM and 27.5 nM

Compound: O=C(OCC1CCN(C2CCCC(C(=O)O)C2)CC1)c1c2n(c3ccccc13)CCCO2 (stereo not shown) [Compound 25]
- Agonist/Antagonist properties [1]: Antagonist
- Kb [1, 5]: 2.51 nM
- Kd [2]: 1.2 nM

Compound: O=C(OCC1CCN(C2C3CC4C(C3C(=O)O)C42)CC1)c1c2n(c3ccccc13)CCCO2 (stereo not shown) [Compound 23]
- Kb ([1]; Antagonist pKb value): 3.63 nM
- Agonist/Antagonist properties [1]: Antagonist
- Kd [2]: 1.51 nM

Compound: CCCCN1CCC(CNC(=O)c2c3n(c4ccccc24)CCCO3)CC1 [SB207266, reference compound]
- Agonist/Antagonist properties [1]: Antagonist
- Kb [1, 5]: 0.0537 nM and 0.0372 nM and 0.269 nM
- Kd [2, 6]: 0.263 nM and 0.209 nM and 0.166 nM and 0.0355 nM and 0.0407 nM

Compound: COc1cc(N)c(Cl)cc1C(=O)NCC1CCN(Cc2ccc(-c3ccccc3C(=O)O)cc2)CC1 [Compound 18]
- Kd [2, 6]: 174 nM and 126 nM

Compound: CC(C(=O)O)c1ccc(CN2CCC(COC(=O)c3c4n(c5ccccc35)CCCO4)CC2)cc1 (stereo not shown) [Compound 27]
- Kb ([1]; Antagonist pKb value): 1.62 nM
- IC50 [3]: 25000 nM
- Kd [2]: 0.513 nM

Compound: CC(C)(C(=O)O)c1ccc(CN2CCC(COC(=O)c3c4n(c5ccccc35)CCCO4)CC2)cc1 [Compound 29]
- Kb [1, 5]: 1.66 nM
- Kd [2]: 0.355 nM

Compound: COC(=O)c1ccccc1-c1ccc(CN2CCC(CNC(=O)c3cc(Cl)c(N)cc3OC)CC2)cc1 [Compound 17]
- Kd [2, 6]: 3.72 nM and 5.01 nM

Compound: COC(=O)c1ccccc1-c1ccc(CN2CCC(COC(=O)c3c4n(c5ccccc35)CCCO4)CC2)cc1 [Compound 7]
- Kb ([1]; Antagonist pKb value): 0.0132 nM and 0.0479 nM
- IC50 [3]: 131 nM
- Kd [2]: 0.00251 nM

Compound: O=C(NCC1CCN(Cc2ccc(-c3ccccc3-c3nn[nH]n3)cc2)CC1)c1c2n(c3ccccc13)CCCO2 [Compound 2]
- Agonist/Antagonist properties [1]: Antagonist
- IC50 [3, 4]: 27500 nM
- Kd [2]: 3.89 nM and 4.17 nM and 4.37 nM
